Measurements taken from US20150094474A1, “AGRICULTURAL CHEMICALS” (Redx Pharma Ltd., priority 2012, published 2015).

Columns and labels:
peas = assay: Herbicidal bioassay, peas (% necrosis); format: in vivo
Method in brief: (§1)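 Lolium perenne, barley, peas and Chinese cabbage at 2-4 true leaf stage sprayed simultaneously with a Potter tower, compounds in DMSO at six concentrations (0.05% to 0.0001%). Phytotoxicity scored as % necrosis per EPPO PP1/135 at set intervals; five replicates per treatment and species; DMSO and water controls.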

barley = assay: Herbicidal bioassay, barley (% necrosis); format: in vivo
Method in brief: as §1

COc1cc(OC)nc(NC(=O)NS(=O)(=O)c2cc(CNS(C)(=O)=O)ccc2COC(C)=O)n1 [Compound 61, [2-[(4,6-Dimethoxypyrimidin-2-yl)carbamoylsulfamoyl]-4-(methanesulfonamidomethyl)phenyl]methylacetate]
C (less than 50% necrosis): Sum of % necrosis in Pea (peas; Dose 0.000001, Day 0) | Sum of % necrosis in Pea (peas; Dose 0.000001, Day 1) | Sum of % necrosis in Pea (peas; Dose 0.000001, Day 3) | Sum of % necrosis in Pea (peas; Dose 0.000001, Day 7) | Sum of % necrosis in Pea (peas; Dose 0.000001, Day 10) | Sum of % necrosis in Pea (peas; Dose 0.000001, Day 14) | Sum of % necrosis in Pea (peas; Dose 0.000005, Day 0) | Sum of % necrosis in Pea (peas; Dose 0.000005, Day 1) | Sum of % necrosis in Pea (peas; Dose 0.000005, Day 3) | Sum of % necrosis in Pea (peas; Dose 0.000005, Day 7) | Sum of % necrosis in Pea (peas; Dose 0.000005, Day 10) | Sum of % necrosis in Pea (peas; Dose 0.000005, Day 14) | Sum of % necrosis in Pea (peas; Dose 0.00001, Day 0) | Sum of % necrosis in Pea (peas; Dose 0.00001, Day 1) | Sum of % necrosis in Pea (peas; Dose 0.00001, Day 3) | Sum of % necrosis in Pea (peas; Dose 0.00001, Day 7) | Sum of % necrosis in Pea (peas; Dose 0.00001, Day 10) | Sum of % necrosis in Pea (peas; Dose 0.00005, Day 0) | Sum of % necrosis in Pea (peas; Dose 0.00005, Day 1) | Sum of % necrosis in Pea (peas; Dose 0.00005, Day 3) | Sum of % necrosis in Pea (peas; Dose 0.00005, Day 7) | Sum of % necrosis in Pea (peas; Dose 0.0001, Day 0) | Sum of % necrosis in Pea (peas; Dose 0.0001, Day 1) | Sum of % necrosis in Pea (peas; Dose 0.0001, Day 3) | Sum of % necrosis in Pea (peas; Dose 0.0001, Day 7) | Sum of % necrosis in Pea (peas; Dose 0.0001, Day 10) | Sum of % necrosis in Pea (peas; Dose 0.0001, Day 14) | Sum of % necrosis in Pea (peas; Dose 0.0005, Day 0) | Sum of % necrosis in Pea (peas; Dose 0.0005, Day 1) | Sum of % necrosis in Pea (peas; Dose 0.0005, Day 3) | Sum of % necrosis in barley (barley; Dose 0.000001, Day 0) | Sum of % necrosis in barley (barley; Dose 0.000001, Day 1) | Sum of % necrosis in barley (barley; Dose 0.000001, Day 3) | Sum of % necrosis in barley (barley; Dose 0.000001, Day 7) | Sum of % necrosis in barley (barley; Dose 0.000001, Day 10) | Sum of % necrosis in barley (barley; Dose 0.000001, Day 14) | Sum of % necrosis in barley (barley; Dose 0.000005, Day 0) | Sum of % necrosis in barley (barley; Dose 0.000005, Day 1) | Sum of % necrosis in barley (barley; Dose 0.000005, Day 3) | Sum of % necrosis in barley (barley; Dose 0.000005, Day 7) | Sum of % necrosis in barley (barley; Dose 0.000005, Day 10) | Sum of % necrosis in barley (barley; Dose 0.000005, Day 14) | Sum of % necrosis in barley (barley; Dose 0.00001, Day 0) | Sum of % necrosis in barley (barley; Dose 0.00001, Day 1) | Sum of % necrosis in barley (barley; Dose 0.00001, Day 3) | Sum of % necrosis in barley (barley; Dose 0.00001, Day 7) | Sum of % necrosis in barley (barley; Dose 0.00001, Day 10) | Sum of % necrosis in barley (barley; Dose 0.00001, Day 14) | Sum of % necrosis in barley (barley; Dose 0.00005, Day 0) | Sum of % necrosis in barley (barley; Dose 0.00005, Day 1) | Sum of % necrosis in barley (barley; Dose 0.00005, Day 3) | Sum of % necrosis in barley (barley; Dose 0.00005, Day 7) | Sum of % necrosis in barley (barley; Dose 0.00005, Day 10) | Sum of % necrosis in barley (barley; Dose 0.00005, Day 14) | Sum of % necrosis in barley (barley; Dose 0.0001, Day 0) | Sum of % necrosis in barley (barley; Dose 0.0001, Day 1) | Sum of % necrosis in barley (barley; Dose 0.0001, Day 3) | Sum of % necrosis in barley (barley; Dose 0.0001, Day 7) | Sum of % necrosis in barley (barley; Dose 0.0001, Day 10) | Sum of % necrosis in barley (barley; Dose 0.0001, Day 14) | Sum of % necrosis in barley (barley; Dose 0.0005, Day 0) | Sum of % necrosis in barley (barley; Dose 0.0005, Day 1) | Sum of % necrosis in barley (barley; Dose 0.0005, Day 3) | Sum of % necrosis in barley (barley; Dose 0.0005, Day 7) | Sum of % necrosis in barley (barley; Dose 0.0005, Day 10) | Sum of % necrosis in barley (barley; Dose 0.0005, Day 14)
B (50%-80% necrosis): Sum of % necrosis in Pea (peas; Dose 0.00001, Day 14) | Sum of % necrosis in Pea (peas; Dose 0.00005, Day 10) | Sum of % necrosis in Pea (peas; Dose 0.00005, Day 14) | Sum of % necrosis in Pea (peas; Dose 0.0005, Day 7) | Sum of % necrosis in Pea (peas; Dose 0.0005, Day 10)
A (over 80% necrosis): Sum of % necrosis in Pea (peas; Dose 0.0005, Day 14)
